Experimental data as given in US20230044979A1, “ANIMAL CELL CULTURING METHOD” (AJINOMOTO CO., INC., priority 2020, published 2023).

Columns and labels:
[1] = Stability of L-cysteine derivatives in buffer solution (crystal precipitation by visual observation); format: physicochemical; settings: 58 mM in PBS buffer pH 7.0 to 7.2; for relative stability compared with L-cysteine: 5° C. in the dark; for crystal precipitation, Days 0 / crystal precipitation, Days 3 / crystal precipitation, Days 7 / crystal precipitation, Days 14 / crystal precipitation, Days 21 / crystal precipitation, Days 24: stored at 5° C. in the dark; for crystal precipitation, Days 0: day 0; for crystal precipitation, Days 3: day 3; for crystal precipitation, Days 7: day 7; for crystal precipitation, Days 14: day 14; for crystal precipitation, Days 21: day 21; for crystal precipitation, Days 24: day 24
Procedure: In this Example, the stability of L-cysteine derivatives in a buffer solution was evaluated.
In the table, “+” to “++++” indicate that crystal precipitation was observed, and the higher the number of “+”, the greater the degree of precipitation.

CHO cells [2] = test: Effect of addition of L-cysteine derivatives to feed medium on proliferation of CHO cells and antibody production (3); format: cell-based, Chinese hamster; settings: 58 mM in feed medium, 11 days culture, compared to the case without addition of L-cysteine; for cell count: FIG. 6; for antibody production amount: FIG. 7
Procedure: (§1) CELLiST (registered trademark) Basal media (Ajinomoto Co., Ltd.: BASAL3; containing 1.3 mM L-cysteine) was added with LR3-IGF-1 (SIGMA-ALDRICH: I1271-1MG, final concentration of 50 μg/mL) and L-Glutamine (Thermo Fisher SCIENTIFIC: 25030081, final concentration of 6 mM), to prepare a basal medium.
Feed media each containing 82 g/L Cellvento (registered trademark) Feed-210 (Merck: 1.02488.0005), 70 g/L glucose (Wako Pure Chemical Industries, Ltd.: 043-31163), and L-cysteine, Compound 4, Compound 8, Compound 9, or Compound 11 each at 58 mM were prepared. In addition, a feed medium without addition of L-cysteine, which only contained 82 g/L Cellvento (registered trademark) Feed-210 and 70 g/L glucose, was prepared. Separately, a tyrosine concentrate (L-tyrosine disodium salt dihydrate (Merck: 122666-87-9) 74.82 g/L, pH 11.3) was prepared.
A 30 mL-aliquot of a CHO cell suspension adjusted to 3×10^5 cells/mL using the prepared basal medium was seeded into 125 mL-volume flasks (CORNING: 431143), and cultured for 11 days. The culture was carried out with n=2 for all experimental groups. The culture temperature was 37° C. and the agitation speed was 110 rpm. A 1.8 mL-aliquot of each of the prepared feed media and a 120 μL-aliquot of the tyrosine concentrate were added on days 4, 7, and 9 from the start of the culture. A cell culture broth was sampled on days 4, 7, 9, and 11 from the start of the culture, and the viable cell count was measured using a viable/dead cells autoanalyzer Vi-CELL™ XR (Beckman Coulter), and the antibody production amount was measured using Octet QK (FORTEBIO).

CHO cells [3] = test: Effect of addition of L-cysteine derivatives to feed medium on proliferation of CHO cells and antibody production (2); format: cell-based, Chinese hamster; settings: for proliferation performance of cells: 14.5 mM in feed medium, L-cysteine in the feed medium substituted; for proliferation performance of cells / cell count, dependence on concentration: FIG. 4; for IgG production amount: 58.0 mM in feed medium; for IgG production amount / IgG production amount, dependence on concentration: FIG. 5; for cell count, dependence on concentration / IgG production amount, dependence on concentration: 14.5, 29, 58 mM in feed medium
Procedure: as §1
Feed media each containing 82 g/L Cellvento (registered trademark) Feed-210 (Merck: 1.02488.0005), 70 g/L glucose (Wako Pure Chemical Industries, Ltd.: 043-31163), and L-cysteine, Compound 3S, or Compound 3R each at 14.5 mM, 29 mM, or 58 mM were prepared. Separately, a tyrosine concentrate (L-tyrosine disodium salt dihydrate (Merck: 122666-87-9) 74.82 g/L, pH 11.3) was prepared.
A 3 mL-aliquot of a CHO cell suspension adjusted to 3×10^5 cells/mL using the prepared basal medium was seeded into a 6 well plate (CORNING, Cat. No. CLS3471), and cultured for 14 days. The culture was carried out with n=2 for all experimental groups. The culture temperature was 37° C. and the agitation speed was 110 rpm. A 0.18 mL-aliquot of each of the prepared feed media and a 12 μL-aliquot of the tyrosine concentrate were added on days 4, 7, 9, and 11 from the start of the culture. A cell culture broth was sampled on days 4, 7, 9, 11, and 14 from the start of the culture, and the viable cell count was measured using a viable/dead cells autoanalyzer Vi-CELL™ XR (Beckman Coulter), and the antibody production amount on days 11 and 14 from the start of the culture was measured using Octet QK (FORTEBIO).

Structure (SMILES) | relative stability compared with L-cysteine [1] | crystal precipitation, Days 0 [1] | crystal precipitation, Days 3 [1] | crystal precipitation, Days 7 [1] | crystal precipitation, Days 14 [1] | crystal precipitation, Days 21 [1] | crystal precipitation, Days 24 [1] | cell count (CHO cells [2]) | antibody production amount (CHO cells [2]) | ability to substitute for L-cysteine (CHO cells [3]; in feed medium) | proliferation performance of cells (CHO cells [3]) | IgG production amount (CHO cells [3]) | cell count, dependence on concentration (CHO cells [3]) | IgG production amount, dependence on concentration (CHO cells [3])
CC(C)OC(=O)C1(C)N[C@H](C(=O)O)CS1 (mixture of isomers) [Compound 4, (2RS,4R)-2-methyl-2,4-thiazolidinedicarboxylic acid 2-i-propyl ester] | more stable than L-cysteine | − | − | − | − | − | − | higher than those of the case without addition of L-cysteine | higher than those of the case without addition of L-cysteine |  |  |  |  | 
CC(C)(C)OC(=O)C1(C)N[C@H](C(=O)O)CS1 (mixture of isomers) [Compound 6, (2RS,4R)-2-methyl-2,4-thiazolidinedicarboxylic acid 2-t-butyl ester] | more stable than L-cysteine | − | − | − | − | − | − |  |  |  |  |  |  | 
CCOC(=O)C1N[C@H](C(=O)O)CS1 (mixture of isomers) [Compound 8, (2RS,4R)-2,4-thiazolidinedicarboxylic acid 2-ethyl ester] | more stable than L-cysteine | − | − | − | − | − | − | higher than those of the case without addition of L-cysteine | higher than those of the case without addition of L-cysteine |  |  |  |  | 
COC(=O)C1(Cc2ccc(O)cc2)N[C@H](C(=O)O)CS1 (mixture of isomers) [Compound 9, (2RS,4R)-2-(4-hydroxyphenyl)methyl-2,4-thiazolidinedicarboxylic acid 2-methyl ester] | more stable than L-cysteine | − | − | − | − | − | − | higher than those of the case without addition of L-cysteine | higher than those of the case without addition of L-cysteine |  |  |  |  | 
COC(=O)C1(CC(C)C)N[C@H](C(=O)O)CS1 (mixture of isomers) [Compound 11, (2RS,4R)-2-i-butyl-2,4-thiazolidinedicarboxylic acid 2-methyl ester] |  |  |  |  |  |  |  | decreased | decreased |  |  |  |  | 
COC(=O)[C@@]1(C)N[C@H](C(=O)O)CS1 (stereo in doubt) [Compound 3, (2RS,4R)-2-methyl-2,4-thiazolidinedicarboxylic acid 2-methyl ester] |  |  |  |  |  |  |  |  |  | able to substitute for L-cysteine |  |  |  | 

Second part, led by results:

relative stability compared with L-cysteine [1] | crystal precipitation, Days 0 [1] | crystal precipitation, Days 3 [1] | crystal precipitation, Days 7 [1] | crystal precipitation, Days 14 [1] | crystal precipitation, Days 21 [1] | crystal precipitation, Days 24 [1] | Structure (SMILES) | cell count (CHO cells [2]) | antibody production amount (CHO cells [2]) | ability to substitute for L-cysteine (CHO cells [3]; in feed medium) | proliferation performance of cells (CHO cells [3]) | IgG production amount (CHO cells [3]) | cell count, dependence on concentration (CHO cells [3]) | IgG production amount, dependence on concentration (CHO cells [3])
more stable than L-cysteine | − | − | − | − | − | − | COC(=O)[C@]1(C)N[C@H](C(=O)O)CS1 (stereo in doubt) [Compound 3R, (2RS,4R)-2-methyl-2,4-thiazolidinedicarboxylic acid 2-methyl ester] |  |  |  | approximately 70% | equivalent to that of the group adding 14.5 mM or 29.0 mM of L-cysteine hydrochloride monohydrate | increased in a concentration-dependent manner | increased in a concentration-dependent manner
more stable than L-cysteine | − | − | − | − | − | − | COC(=O)[C@@]1(C)N[C@H](C(=O)O)CS1 (stereo in doubt) [Compound 3S, (2RS,4R)-2-methyl-2,4-thiazolidinedicarboxylic acid 2-methyl ester] |  |  |  | approximately 70% | equivalent to that of the group adding 14.5 mM or 29.0 mM of L-cysteine hydrochloride monohydrate | increased in a concentration-dependent manner | increased in a concentration-dependent manner
